This note sets out measurements from US20220280561A1, “COPPER-ATSM FOR TREATING NEURODEGENERATIVE DISORDERS ASSOCITED WITH MITOCHONDRIAL DYSFUNCTION” (RESEARCH INSTITUTE AT NATIONWIDE CHILDREN'S HOSPITAL, priority 2019, published 2022).

The test system of this assay is IRF2BPL (NEDAMSS) astrocytes. Briefly: Seahorse basal and ATP-linked respiration, IRF2BPL (NEDAMSS) astrocytes. The assay is classed as cell-based, human. The following applies: all IRF2BPL (NEDAMSS) astrocytes, treated vs not treated. The protocol: FIG. 21A) Schematic image of the seahorse assay. The base oxygen consumption rate was measured (FIG. 21B). ATP linked respiration was measured following mitochondrial shutdown using oligomycin and was calculated by subtracting the oligo OCR from basal OCR (FIG. 21C). Both basal and/or ATP-linked respiration was elevated in three of the four patient lines tested. iAstrocytes pretreated with CuATSM (dashed bars on the graph) had significant reduction in basal and/or ATP-linked respiration (FIG. 21C). Data represents a minimum of 2 independent experiments.
Next, the effect of CuATSM treatment on basal and/or ATP-linked respiration in NEDAMSS astrocytes was investigated. […] The base oxygen consumption rate (FIG. 21B) was measured at three time points for healthy and NEDAMSS patients astrocytes either treated or not treated with CuATSM. ATP linked respiration was measured by subtracting the […] (FIG. 21C). […] This beneficial response may be due to a mutation specific alteration in one of the other pathways described herein that cuATSM affects that results in another abnormal pathway targeted by CuATSM.

`CN=C([S-])N/N=C(C)/C(C)=N/NC([S-])=NC.[Cu+2]` [CuATSM, diacetyl-bis(4-methylthiosemicarbazonato) copperII]: the ATP-linked respiration entry is recorded as “reduce” and the basal respiration entry is “reduce”.
